In data set [1] the test system is calcium-activated chloride channels. As to the kind of experiment: UTP-induced chloride currents in cystic fibrosis (CFTR-deficient) human bronchial epithelial cells. Type of data set: cell-based. Conditions: 10 or 20 μM; UTP 100 μM. As to the method:
FIG. 3A: Apical membrane current measured in CFTR-expressing FRT cells in the presence of a transepithelial chloride gradient and with amphotericin B permeabilization of the basolateral membrane. CFTR was activated by CPT-cAMP (chlorophenylthio-cAMP) (100 μM), with increasing concentrations of PPQ-102 added as shown. Left: Original recording. Right: Dose-response (S.E. n=4). FIG. 3B: Measurements as in FIG. 3A, but with apigenin (100 μM) or IBMX (100 μM) as agonists. The data are representative of 3 sets of experiments. FIG. 3C: Short-circuit current measured in T84 (left) and human bronchial airway epithelial cells (right). CFTR was maximally activated by 10 μM forskolin and 100 μM IBMX (‘forsk’). Current in the absence of inhibitor is indicated as ‘control.’ FIG. 3D: Calcium-activated chloride channels were activated by UTP (100 μM) in cystic fibrosis (CFTR-deficient) human bronchial epithelial cells, with PPQ-102 added as indicated. ENaC (epithelial sodium channel) was inhibited by amiloride (10 μM). FIG. 3E: Cellular cAMP assayed in CHO—K1 cells under basal conditions and after addition of 20 μM forskolin (S.E. n=4, differences with PPQ-102, not significant).

The target of a further data set is CFTR (Homo sapiens, UniProt P13569). As to the kind of experiment: Short-circuit current in non-permeabilized T84 and human bronchial epithelial cells. Conditions: forskolin and IBMX, read-out: IC50 for CFTR inhibition. More on the design: endogenous in cells; host or cells: T84 human intestinal epithelial cells; primary human bronchial epithelial cells. Type of data set: cell-based.
Sequence of CFTR (P13569 whole entry): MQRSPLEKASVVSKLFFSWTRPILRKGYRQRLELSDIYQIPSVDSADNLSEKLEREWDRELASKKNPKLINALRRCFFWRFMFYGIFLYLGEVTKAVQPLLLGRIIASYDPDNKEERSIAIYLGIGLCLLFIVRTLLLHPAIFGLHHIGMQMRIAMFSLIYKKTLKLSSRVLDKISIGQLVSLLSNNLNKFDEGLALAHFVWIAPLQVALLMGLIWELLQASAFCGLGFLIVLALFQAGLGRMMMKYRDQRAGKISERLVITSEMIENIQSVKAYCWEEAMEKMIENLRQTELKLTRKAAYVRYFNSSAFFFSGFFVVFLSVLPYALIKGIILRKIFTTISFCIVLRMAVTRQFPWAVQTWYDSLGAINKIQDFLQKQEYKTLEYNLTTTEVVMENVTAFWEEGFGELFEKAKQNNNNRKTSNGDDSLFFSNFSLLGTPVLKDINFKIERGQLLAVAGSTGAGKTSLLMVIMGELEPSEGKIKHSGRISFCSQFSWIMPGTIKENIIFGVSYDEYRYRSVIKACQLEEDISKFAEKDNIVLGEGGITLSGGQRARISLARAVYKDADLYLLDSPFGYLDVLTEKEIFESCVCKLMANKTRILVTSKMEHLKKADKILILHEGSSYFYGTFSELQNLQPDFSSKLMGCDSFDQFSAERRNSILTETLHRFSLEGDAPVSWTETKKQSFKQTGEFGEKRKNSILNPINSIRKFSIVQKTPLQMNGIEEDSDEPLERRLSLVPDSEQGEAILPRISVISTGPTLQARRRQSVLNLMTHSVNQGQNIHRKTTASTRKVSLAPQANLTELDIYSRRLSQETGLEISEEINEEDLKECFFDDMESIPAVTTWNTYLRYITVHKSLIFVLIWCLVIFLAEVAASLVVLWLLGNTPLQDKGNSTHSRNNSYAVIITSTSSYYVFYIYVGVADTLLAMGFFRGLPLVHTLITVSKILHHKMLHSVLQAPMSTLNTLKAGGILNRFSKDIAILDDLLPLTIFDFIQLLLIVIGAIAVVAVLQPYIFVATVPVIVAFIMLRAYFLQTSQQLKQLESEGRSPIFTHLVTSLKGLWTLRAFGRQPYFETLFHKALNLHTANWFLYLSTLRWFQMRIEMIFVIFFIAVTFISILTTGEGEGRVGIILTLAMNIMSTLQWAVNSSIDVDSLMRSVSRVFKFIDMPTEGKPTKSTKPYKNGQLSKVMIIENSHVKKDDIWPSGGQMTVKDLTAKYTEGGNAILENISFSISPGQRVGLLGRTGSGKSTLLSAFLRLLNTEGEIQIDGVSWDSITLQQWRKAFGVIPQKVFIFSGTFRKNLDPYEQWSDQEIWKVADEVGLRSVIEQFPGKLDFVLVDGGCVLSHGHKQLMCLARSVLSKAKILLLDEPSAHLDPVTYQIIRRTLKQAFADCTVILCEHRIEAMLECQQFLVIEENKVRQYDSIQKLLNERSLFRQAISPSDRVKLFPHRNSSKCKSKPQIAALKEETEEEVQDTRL

Data set [2] addresses T1, human wildtype CFTR (Homo sapiens, UniProt P13569).
T1 construct: expressed in transfected cells; host or cells: Fischer rat thyroid (FRT) cells
As to the kind of experiment: Short-circuit (apical membrane) chloride current in CFTR-expressing FRT cells, basolateral membrane permeabilized. The data set is classed as cell-based. As to the method: C. Short-Circuit Current Measurements—Snapwell inserts containing CFTR-expressing FRT cells (stably expressing human wildtype CFTR), T84 cells, or human bronchial epithelial cells were mounted in Ussing chambers. For FRT cells the hemichambers were filled with 5 mL of 75 mM NaCl and 75 mM Na gluconate (apical), and 150 mM NaCl (basolateral) (pH 7.3), and the basolateral membrane was permeabilized with 250 μg/mL amphotericin B. For bronchial epithelial cells and T84 cells, both hemichambers contained a Krebs-bicarbonate solution. Hemichambers were continuously bubbled with air (FRT cells) or 5% CO2 in air (bronchial and T84 cells) and maintained at 37° C. Short-circuit current was recorded continuously using a DVC-1000 voltage clamp (World Precision Instruments, Sarasota, Fla.) using Ag/AgCl electrodes and 3 M KCl agar bridges.
Short circuit current analysis was performed as described in Example 2. […] Measurements were taken in the presence of a transepithelial chloride gradient and following basolateral membrane permeabilization with amphotericin B so that measured current is a direct, quantitative measure of CFTR chloride conductance.

Data set [3] relates to renal cysts in E13.5 embryonic kidneys. The data set is described as follows: Embryonic kidney organ culture model of PKD (8-Br-cAMP-induced cysts). Type of data set: cell-based, mouse. As to the method: E. Embryonic Organ Culture Model of PKD—Mouse embryos were obtained at embryonic day 13.5 (E13.5). Metanephroi were dissected and placed on transparent Falcon […] diameter porous cell culture inserts as described (see, e.g., Sonawane et al., Chem. Biol. 15:718-728 (2008)). To the culture inserts was added DMEM/Ham's F-12 nutrient medium supplemented with 2 mM L-glutamine, 10 mM HEPES, 5 μg/mL insulin, 5 μg/mL transferrin, 2.8 nM selenium, 25 ng/ml prostaglandin E, 32 pg/ml T3, 250 U/ml penicillin and 250 μg/ml streptomycin. Kidneys were maintained in a 37° C. humidified CO2 incubator for up to 8 days. Culture medium containing 100 μM 8-Br-cAMP, with or without CFTR inhibitor, was replaced (in the lower chamber) every 12 h. In some studies CFTR inhibitor was added at 3 days after 8-Br-cAMP to test its efficacy in reversing pre-formed cysts. Kidneys were photographed using a Nikon inverted microscope (Nikon TE 2000-S) equipped with 2× objective lens, 520 nm bandpass filter, and high-resolution CCD camera. Percentage cyst area was calculated as total cyst area divided by total kidney area.
Kidneys were removed from day 13.5 embryonic mice and maintained in organ culture where they continue to grow. […] Multiple cysts did form and progressively enlarged when the culture medium was supplemented with the CFTR agonist 8-Br-cAMP (see FIG. 5A, left). […] In agreement with the transmission light micrographs of intact kidneys, PPQ-102 reduced cyst size.

The target in data set [4] is T1, human wildtype CFTR. As to the kind of experiment: Fluorescence platereader assay of CFTR-mediated iodide influx (YFP quenching) in FRT cells. Type of data set: cell-based. An outline of the steps: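 Fischer rat thyroid cells co-expressing human wildtype CFTR and the YFP-H148Q/1152L halide sensor were seeded at 20,000 cells per well in 96-well black-walled plates and assayed 48 h later at confluence. After PBS washes and a 15 min incubation, CFTR was maximally activated with an agonist mixture. Fluorescence was recorded for 2 s before and 10 s after adding 160 μL iodide-substituted PBS, and iodide influx rates came from non-linear regression.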

Here are results for one molecule from patent US8609661B2, “Pyrimido-pyrrolo-quinoxalinedione inhibitors of cystic fibrosis transmembrane conductance regulator protein and uses therefor” (The Regents of the University of California, priority 2009, dated 2013).

T1 sequence (P13569 whole entry): as above

Turning to `Cc1ccc(C2Nc3ccccc3-n3c(-c4ccccc4)c4c(=O)n(C)c(=O)n(C)c4c32)o1` (racemic) [PPQ-102, 7,9-Dimethyl-11-phenyl-6-(5-methylfuran-2-yl)-5,6-dihydro-pyrimido[4′,5′-3,4]pyrrolo[1,2-a]quinoxaline-8,10-(7H,9H)-dione], in data set [1], the “inhibition of UTP-induced chloride currents” value was “little inhibition”. For the same molecule, the half-maximal inhibitory concentration (IC50) on CFTR is less than 1000 nM; at human wildtype CFTR [2] (CFTR stimulated by CPT-cAMP, transepithelial chloride gradient, amphotericin B, read-out: IC50 for inhibition of CFTR chloride conductance), approximately 90 nM; on human wildtype CFTR [4] (apparent IC50 from concentration-inhibition data, fluorescence platereader assay), 800 nM. Also, the reversibility of inhibition entry on human wildtype CFTR [2] (30 min incubation with 2 μM, then 10 min washout) was “complete restoration of CFTR chloride current”. Besides, on human wildtype CFTR [2] (CPT-cAMP stimulation, higher concentrations), the “inhibition of CFTR at higher concentrations” value is on record as “approximately 100%”. Moreover, the “potency with apigenin or IBMX as agonist compared to CPT-cAMP” value on human wildtype CFTR [2] (apigenin (100 μM) or IBMX (100 μM) as agonists) was “mildly reduced”. Moreover, the “reversibility of cyst inhibition” value in data set [3] (2.5 μM removed after 3 days, 8-Br-cAMP continued) is “reversible”. In data set [3] (5 μM added at day 3 of 8-Br-cAMP, over 1 and 2 days), the “effect on pre-formed cysts” value is recorded as “reduction in cyst size”. For the same molecule, the “cysts at 2.5 and 5 μM” value in data set [3] (2.5 and 5 μM, 4 days in culture, 100 μM 8-Br-cAMP) is recorded as “near complete absence of cysts”. Besides, in data set [3] (in culture medium), the “effect on kidney growth” value is reported as “did not affect kidney growth”. Besides, the inhibition at 5 µM on human wildtype CFTR [4] (FRT, Table 2, screening, 5 μM, read-out: % Inhibition at 5 μM) is 85%. For the same molecule, the inhibition at 25 µM on human wildtype CFTR [4] (FRT, Table 2, screening, 25 μM, read-out: % Inhibition at 25 μM) turned out to be 97%.
